Patent US11560546B2, “Methods for neural conversion of human embryonic stem cells” (MEMORIAL SLOAN KETTERING CANCER CENTER, priority 2009, dated 2023)
Where a name gives a salt, the structure may show the parent alone.

Columns and labels:
[1] = test system: NSB derived neural precursor cells; assay: Conditioned media patterning of naive neural progenitor cells, qRT-PCR; format: cell-based, human
Source text: The FP has important functional roles during development in neural patterning and axonal path finding (Jessell, 2000). To assess the functional properties of hESCs derived FP conditioned media was isolated at days 9 and 11 and tested for expression of Netrin-1 in the medium using ELISA (FIG. 3A). Under normal NSB conditions, Netrin-1 is detectable at Day 9 and decreases at Day 11 while in the NSB+SHH condition, there is a 3.5 fold increase in Netrin-1 levels, increasing at Day 11 (FIG. 3B). SHH is a critical patterning factor secreted by FP cells and specifying ventral cell types in a dose-dependent manner. To test if hESCs derived FP secretes factors that can specify ventral precursor domains, conditioned media (CM) was isolated at Days 9 and 11 of the differentiation. At Day 6, exogenous SHH was removed and cultures were washed to eliminate any exogenously added SHH from the medium. Naïve neural progenitor cells were isolated at Day 11 of the control (NSB) protocol and cultured with either NSB CM or FP CM. After Day 5 of culture in the presence of CM, the inventors probed for the expression of ventral precursor markers and expression of the SHH responsive gene GLI2. […] Increase in the expression of ventral markers was confirmed at the level of protein (FIG. 3C′).

hESCs [2] = assay: Floor plate induction in NSB protocol, FOXA2 immunostaining; format: cell-based, human; details: NSB protocol
Procedure: (§1) For MS5 induction, established methods previously reported were used (Perrier et al., 2004). Feeder free neural induction was carried out as previously described (Chambers et al., 2009). Briefly, hESCs cultures were disaggregated using accutase for 20 minutes, washed using hESCs media and pre-plated on gelatin for 1 hour at 37° C. in the presence of ROCK inhibitor to remove MEFs. The nonadherent hESCs were washed and plated on matrigel at a density of 20,000 cells/cm2 on matrigel (BD) coated dishes in MEF conditioned hESCs media (CM) spiked with 10 ng/mL of FGF-2 and ROCK-inhibitor. The ROCK inhibitor was withdrawn, and hESCs were allowed to expand in CM for 3 days or until they were nearly confluent. The initial differentiation media conditions included knock out serum replacement (KSR) media with […] TGF-b inhibitor (SB431542, Tocris) and 500 ng/mL of Noggin (R&D). Upon day 5 of differentiation, increasing amounts of N2 media (25%, 50%, 75%) was added to the KSR media every two days while maintaining 500 ng/mL of Noggin and TGF-b inhibitor. For FP induction, Sonic C25II was added at 200 ng/ml.
Tissue was fixed using 4% paraformaldehyde and Picric acid for 15 minutes, washed with PBS, permeablized using 0.3% Triton X in PBS, and blocked using 10% Donkey Serum. Primary antibodies used for microscopy included PAX6 (Covance), TUJ1 (Covance), ZO1 (Zymed), BF1 (FOXG1, gift E.Lai), TH (Pelfreez), NKX6.1 (DSHB) and FOXA2 (SantaCruz).
Using this protocol, in combination with compositions and methods of the present inventions, the inventors aimed to optimize FP differentiation by adding Sonic C25II at different time points during neural induction and assaying for FOXA2 expression. Differentiation was initiated upon NSB exposure, and Sonic C25II was added at Day 1, Day 3, Day 5, or Day 7 (FIG. 2A).

[3] = most functional assays; cited from earlier work
DKK-1 = DKK-1 transcript (qPCR) and protein in medium (ELISA); format: cell-based, human; details: as early as 2 days post treatment
hESCs [4] = assay: qRT-PCR of FP, AN and regional markers during FP induction; format: cell-based, human
Procedure: as §1
Total RNA was extracted using an RNeasy kit (Qiagen). For each sample, 1 ug of total RNA was treated for DNA contamination and reverse transcribed using the Superscript III (Invitrogen). Amplified material was detected using Taqman probes and PCR mix (ABI) on a Mastercycler RealPlex2 (Eppendorf). All results were normalized to a HPRT control and are from 3 technical replicates of 3 independent biological samples at each data point.
FOXA2 is a key marker of FP development. However, FOXA2 is also highly expressed in the endoderm. To further characterize the hESC derived putative FP tissue, the inventors performed qRT-PCR analyses for candidate markers at Day 11. […] The inventors further characterized the nature of FOXA2+ putative FP cells using a panel of neural precursor, glial, neuronal and non-neural markers (FIG. 7). […] To distinguish FOXA2 expression in hESC derived FP versus endoderm tissue, the inventors differentiated hESCs to endoderm (D'Amour et al., 2005).
To gain further insight into the factors critical for human FP specification, high resolution temporal gene expression profiles of candidate markers were performed at 6 time points during the 11 day protocol.
The inventors contemplated the use of SIX6 as a putative marker of anterior FP identity. Thus SIX6 status of the hESC derived FP was used to mark respecification in response to known caudalizing agents such as FGF8, Wnt-1, and Retinoic Acid. Each of these caudalizing factors was added in combination with SHH and the resulting tissue was assessed for expression of the FP markers FOXA2 and NETRIN-1, the AN marker BF1, and putative anterior FP marker SIX6.

[5] = test system: rosette-stage neural cells; assay: Floor plate induction in stromal-feeder (MS5) derived / rosette-stage neural cells; format: cell-based, human
Procedure: as §1
hESC derived neural cells at the rosette stage were differentiated into both CNS and PNS progeny and patterned towards multiple cells fates along the A/P and D/V axis (Elkabetz et al., 2008). […] Specification of progenitor cells into FP tissue and cells during mouse development was thought to depend on SHH signaling within early neural lineages. The inventors tested whether rosette-stage neural cells were competent to undergo FP specification in response to SHH. High concentrations of SHH were needed to induce FP during mouse development (Roelink et al., 1994; Ericson et al., 1996). Recombinant N-terminal SHH has a limited activity range due to the lack of posttranslational modifications required for full SHH action. Recently, a modified version of recombinant SHH became available where SHH was tethered to two Isoleucines (Sonic C25II, R&D Systems), mimicking more closely the potency of mammalian SHH protein.
The majority of cells retained rosette cytoarchitecture and staining for the AN marker BF1 as described previously (FIG. 1A) (Elkabetz et al., 2008).
Based on the hypothesis that FP specification in the mouse occurs at early developmental stages, at the time of or prior to neural induction, the inventors repeated SHH induction studies at Day 9, the time of rosette specification, using classic stromal-feeder mediated neural induction protocols (Elkabetz et al., 2008). Under this paradigm the inventors noticed a drastic change in cell morphology restricted to the cells treated with SHH-C25II (FIG. 1B).

hESCs [6] = assay: Neural induction of hESC under adherent conditions, PAX6 expression; format: cell-based, human; details: 10 uM to 30 nM, each added to 10 uM of SB431542
Procedure: The inventors contemplated that establishing an even cell distribution is critical for inducing homogenous neural differentiation of hESCs. To this end, undifferentiated hESC were dissociated into single cells and re-plated onto Matrigel coated dishes in conditioned medium supplement with ROCK inhibitor, Y-27632 (Wananabe et at, 2007). After 72 hours cells were switched from hESC conditions to knock-out serum replacement medium (KSR) containing either Noggin, SB4315242, or both factors and allowed to differentiate for a total of 11 days (FIG. 1.a.). […] Neural induction was monitored by expression of PAX6, an early marker of neuroectodermal differentiation ([…], et al., Annu Rev Neurosci 20:483 (1997). As an alternative to the specific Smad inhibitors used here, it is possible to block both distinct Smad pathways using alternative inhibitors or mechanisms. Dorsomorphin is a small molecule alternative to Noggin, targeting the same pathway. Concentrations ranged from 10 uM to 30 nM, each individual amount added to 10 uM of SB431542. […] Quantitative Real-Time (Dual SMAD). […] For each sample, 1 ug of total RNA was treated for DNA contamination and reverse transcribed using the Quantitect RT kit (Qiagen). Amplified material was detected using Quantitect SYBR green probes and PCR kit (Qiagen) on a Mastercycler RealPlex2 (Eppendorf). […]

hESCs [7] = assay: Placode induction from hESC (Six1 immunocytochemistry, qRT-PCR); format: cell-based, human; details: early addition to SB431542 (1 μM) treated hESCs
Source text: Sensory placodes are developmental structures formed at the interface of early neuroectodermal and non-neural ectoderm tissue. To address whether the N-SB culture system is suitable for the derivation of placodal cells, The inventors first established a set of markers to identify placode identity in human embryonic stem cells (hESCs)-derived cultures. From studies in other model organisms, The inventors postulated a number of candidate markers to identify human placodal precursor during hESC differentiation including member of the Six, Eya, and Dlx family of transcription factors. Six1 marks the pre-placodal region and placodal cells in model organisms but is also expressed in skeletal muscle precursors.
276(1): p. 1-15, herein incorporated by reference. To test whether addition of exogenous BMPs enhances the derivation of Six1+ cells, The inventors exposed SB431542 (1 μM) treated hESCs to various concentration of BMP4. […] 27(3): p. 275-80; Xu, et al., Nat Biotechnol, 2002. 20(12): p. 1261-4, herein incorporated by reference.
We next explored whether simple withdrawal of the BMP inhibitor noggin during N-SB differentiation may enhance the emergence of placodal fates by de-repressing endogenous BMP signaling. […]

**Q.** For CC1=C2C[C@H]3[C@@H](CC=C4C[C@@H](O)CC[C@@]43C)[C@@H]2CC[C@]12O[C@@H]1C[C@H](C)CN[C@H]1[C@H]2C [cyclopamine], which “NKX2.1, NKX6.1 and GLI2 expression induced by FP conditioned media” value [1] is on record?
**A.** significantly reduced

**Q.** Which “FOXA2 yield with extended treatment beyond Day 11” value (hESCs [2]) does the source give for “Sonic C25II: modified recombinant SHH tethered to two Isoleucines (R&D Systems); 'SHH' in FP induction examples, added at 200 ng/ml” here?
**A.** did not increase FOXA2 yield

**Q.** What about the “FOXA2+ cells (of total cells)” value (hESCs [2]; added starting at day 1) of the same molecule?
**A.** about 65%

**Q.** And the “potency relative to non-modified N-terminal SHH” value [3]?
**A.** ~10 times

**Q.** And the “DKK-1 mRNA and protein levels” value (DKK-1)?
**A.** drastic reduction

**Q.** And the “increase in SIX6 mRNA levels” value (hESCs [4]; Day 5 of differentiation, FP induction versus NSB control)?
**A.** About 50,000 fold

**Q.** And the “PAX6 and BF1 expression” value (hESCs [4]; day 7, versus NSB)?
**A.** drastic reduction in PAX6 and BF1

**Q.** And the “concentrations achieving induction of FOXA2+ cells and decrease in BF1 and PAX6” value ([5]; added at Day 9, stromal-feeder neural induction)?
**A.** 125 to 500 ng/mL

**Q.** And the “induction of FOXA2+ cells” value ([5]; added at Day 9, stromal-feeder neural induction, Day 21)?
**A.** robust upregulation of FOXA2+

**Q.** What about the “FP marker (FOXA2) expression on established rosette-stage neural cells” value ([5]; dose-response, added at Day 15) of the same molecule?
**A.** did not yield cells expressing FP markers

**Q.** Which “efficiency of neural induction based on the percentage of PAX6+ cells” value (hESCs [6]) does the source give for c1cc(-c2cnn3cc(-c4ccc(OCCN5CCCCC5)cc4)cnc23)ccn1 [Dorsomorphin, 6-[4-[2-(1-Piperidinyl)ethoxy]phenyl]-3-(4-pyridinyl)-pyrazolo[1,5-a]pyrimidine dihydrochloride] here?
**A.** not as high as used with Noggin/SB431542

B1: BMP4: bone morphogenetic protein-4, exogenous BMP (protein, UniProt P12644 293-408, looked up)
Bone morphogenetic protein 4: SPKHHSQRARKKNKNCRRHSLYVDFSDVGWNDWIVAPPGYQAFYCHGDCPFPLADHLNSTNHAIVQTLVNSVNSSIPKACCVPTELSAISMLYLDEYDKVVLKNYQEMVVEGCGCR
**Q.** For B1, which “cdx2 induction / trophoectodermal differentiation” value (hESCs [7]) is on record?
**A.** induction of cdx2
